ChEMBL document CHEMBL3407452, “Linear and branched alkyl-esters and amides of gallic acid and other (mono-, di- and tri-) hydroxy benzoyl derivatives as promising anti-HCV inhibitors” (Eur J Med Chem, 2015)
The source made the active and inactive calls. The calls are words filed in the database; no cut-off is given here.

test system: Influenza A virus; assay: Antiviral activity against influenza A virus (H1N1); type: functional, organism-based; conditions: not given

SMILES	Activity
O=C(NCCCCCCCCNC(=O)c1ccc(O)c(O)c1O)c1ccc(O)c(O)c1O	inactive
O=C(NCCCCNC(=O)c1cc(O)c(O)c(O)c1)c1cc(O)c(O)c(O)c1	inactive
O=C(NCCCCCCCCCCCCNC(=O)c1ccccc1O)c1ccccc1O	inactive
O=C(NCCCCCCNC(=O)c1ccc(O)c(O)c1O)c1ccc(O)c(O)c1O	inactive

test system: Influenza A virus H3N2; assay: Antiviral activity against influenza A virus H3N2; type: functional, organism-based; conditions: not given

SMILES	Activity
O=C(NCCCCCCCCNC(=O)c1ccc(O)c(O)c1O)c1ccc(O)c(O)c1O	inactive
O=C(NCCCCNC(=O)c1cc(O)c(O)c(O)c1)c1cc(O)c(O)c(O)c1	inactive
O=C(NCCCCCCCCCCCCNC(=O)c1ccccc1O)c1ccccc1O	inactive
O=C(NCCCCCCNC(=O)c1ccc(O)c(O)c1O)c1ccc(O)c(O)c1O	inactive

test system: not listed separately; assay: Cytotoxicity against human CEM cells assessed as inhibition of cell proliferation; type: cell-based; conditions: CEM cells (CCRF-CEM)

SMILES	CC50 [µM]
O=C(NCCCCCCCCNC(=O)c1ccc(O)c(O)c1O)c1ccc(O)c(O)c1O	82
O=C(NCCCCNC(=O)c1cc(O)c(O)c(O)c1)c1cc(O)c(O)c(O)c1	23
O=C(NCCCCCCCCCCCCNC(=O)c1ccccc1O)c1ccccc1O	248
O=C(NCCCCCCNC(=O)c1ccc(O)c(O)c1O)c1ccc(O)c(O)c1O	102

test system: Hepatitis C virus; assay: Antiviral activity against HCV genotype 1b I389luc-ubi-neo/NS3-3'/5.1 replicons infected in human Huh5-2 HCV subgenomic replicon-containing cells assessed as reduction in virus replication after 3 days by luciferase reporter gene assay; type: functional, Hepacivirus hominis; conditions: Hepatitis C virus, genotype 1b, Huh-5-2, 72 h

SMILES	EC90 [µM]
O=C(NCCCCNC(=O)c1cc(O)c(O)c(O)c1)c1cc(O)c(O)c(O)c1	> 29
O=C(NCCCCCCCCCCCCNC(=O)c1ccccc1O)c1ccccc1O	> 6.7

same assay, conditions: Hepatitis C virus, genotype 1b, Huh-5-2, 72 h; read-out: EC50

SMILES	EC50 [µM]
O=C(NCCCCCCCCNC(=O)c1ccc(O)c(O)c1O)c1ccc(O)c(O)c1O	25
O=C(NCCCCNC(=O)c1cc(O)c(O)c(O)c1)c1cc(O)c(O)c(O)c1	18
O=C(NCCCCCCCCCCCCNC(=O)c1ccccc1O)c1ccccc1O	4.7
O=C(NCCCCCCNC(=O)c1ccc(O)c(O)c1O)c1ccc(O)c(O)c1O	14

test system: not listed separately; assay: Cytotoxicity against human Huh5-2 cells after 72 hrs by MTS assay; type: cell-based, Huh-5-2; conditions: not given

SMILES	CC50 at 72 h [µM]
O=C(NCCCCCCCCNC(=O)c1ccc(O)c(O)c1O)c1ccc(O)c(O)c1O	34
O=C(NCCCCNC(=O)c1cc(O)c(O)c(O)c1)c1cc(O)c(O)c(O)c1	29
O=C(NCCCCCCCCCCCCNC(=O)c1ccccc1O)c1ccccc1O	> 6.7
O=C(NCCCCCCNC(=O)c1ccc(O)c(O)c1O)c1ccc(O)c(O)c1O	32

test system: Vesicular stomatitis virus; assay: Antiviral activity against vesicular stomatitis virus; type: functional, organism-based; conditions: not given

SMILES	Activity
O=C(NCCCCCCCCNC(=O)c1ccc(O)c(O)c1O)c1ccc(O)c(O)c1O	inactive
O=C(NCCCCNC(=O)c1cc(O)c(O)c(O)c1)c1cc(O)c(O)c(O)c1	inactive
O=C(NCCCCCCCCCCCCNC(=O)c1ccccc1O)c1ccccc1O	inactive
O=C(NCCCCCCNC(=O)c1ccc(O)c(O)c1O)c1ccc(O)c(O)c1O	inactive

test system: Human immunodeficiency virus 1; assay: Antiviral activity against HIV1 3B infected in human CEM cells assessed as reduction in virus-induced cytopathicity after 4 to 5 days by microscopy based syncytium cell formation assay; type: functional, organism-based, CCRF-CEM; conditions: Human immunodeficiency virus 1, 3B, CCRF-CEM; read-out: EC50

SMILES	EC50 [µM]
O=C(NCCCCCCCCNC(=O)c1ccc(O)c(O)c1O)c1ccc(O)c(O)c1O	> 50
O=C(NCCCCNC(=O)c1cc(O)c(O)c(O)c1)c1cc(O)c(O)c(O)c1	5.2
O=C(NCCCCCCCCCCCCNC(=O)c1ccccc1O)c1ccccc1O	> 250
O=C(NCCCCCCNC(=O)c1ccc(O)c(O)c1O)c1ccc(O)c(O)c1O	> 50

test system: Human immunodeficiency virus 2; assay: Antiviral activity against HIV2 ROD infected in human CEM cells assessed as reduction in virus-induced cytopathicity after 4 to 5 days by microscopy based syncytium cell formation assay; type: functional, organism-based, ISOLATE ROD, CCRF-CEM; conditions: Human immunodeficiency virus 2, ISOLATE ROD, CCRF-CEM; read-out: EC50

SMILES	EC50 [µM]
O=C(NCCCCCCCCNC(=O)c1ccc(O)c(O)c1O)c1ccc(O)c(O)c1O	> 50
O=C(NCCCCNC(=O)c1cc(O)c(O)c(O)c1)c1cc(O)c(O)c(O)c1	> 10
O=C(NCCCCCCCCCCCCNC(=O)c1ccccc1O)c1ccccc1O	> 250
O=C(NCCCCCCNC(=O)c1ccc(O)c(O)c1O)c1ccc(O)c(O)c1O	> 50

test system: Felid alphaherpesvirus 1; assay: Antiviral activity against feline herpesvirus; type: functional, organism-based; conditions: not given

SMILES	Activity
O=C(NCCCCCCCCNC(=O)c1ccc(O)c(O)c1O)c1ccc(O)c(O)c1O	inactive
O=C(NCCCCNC(=O)c1cc(O)c(O)c(O)c1)c1cc(O)c(O)c(O)c1	inactive
O=C(NCCCCCCCCCCCCNC(=O)c1ccccc1O)c1ccccc1O	inactive
O=C(NCCCCCCNC(=O)c1ccc(O)c(O)c1O)c1ccc(O)c(O)c1O	inactive

test system: Coxsackievirus B4; assay: Antiviral activity against human coxsackievirus B4; type: functional, organism-based; conditions: not given

SMILES	Activity
O=C(NCCCCCCCCNC(=O)c1ccc(O)c(O)c1O)c1ccc(O)c(O)c1O	inactive
O=C(NCCCCNC(=O)c1cc(O)c(O)c(O)c1)c1cc(O)c(O)c(O)c1	inactive
O=C(NCCCCCCCCCCCCNC(=O)c1ccccc1O)c1ccccc1O	inactive
O=C(NCCCCCCNC(=O)c1ccc(O)c(O)c1O)c1ccc(O)c(O)c1O	inactive

test system: Vaccinia virus; assay: Antiviral activity against vaccinia virus; type: functional, organism-based; conditions: Orthopoxvirus vaccinia

SMILES	Activity
O=C(NCCCCCCCCNC(=O)c1ccc(O)c(O)c1O)c1ccc(O)c(O)c1O	inactive
O=C(NCCCCNC(=O)c1cc(O)c(O)c(O)c1)c1cc(O)c(O)c(O)c1	inactive
O=C(NCCCCCCCCCCCCNC(=O)c1ccccc1O)c1ccccc1O	inactive
O=C(NCCCCCCNC(=O)c1ccc(O)c(O)c1O)c1ccc(O)c(O)c1O	inactive

test system: Chikungunya virus; assay: Antiviral activity against chikungunya virus; type: functional; conditions: not given

SMILES	Activity
O=C(NCCCCCCCCNC(=O)c1ccc(O)c(O)c1O)c1ccc(O)c(O)c1O	inactive
O=C(NCCCCNC(=O)c1cc(O)c(O)c(O)c1)c1cc(O)c(O)c(O)c1	inactive
O=C(NCCCCCCCCCCCCNC(=O)c1ccccc1O)c1ccccc1O	inactive
O=C(NCCCCCCNC(=O)c1ccc(O)c(O)c1O)c1ccc(O)c(O)c1O	inactive

test system: Punta Toro virus; assay: Antiviral activity against punta toro virus; type: functional, organism-based; conditions: not given

SMILES	Activity
O=C(NCCCCCCCCNC(=O)c1ccc(O)c(O)c1O)c1ccc(O)c(O)c1O	inactive
O=C(NCCCCNC(=O)c1cc(O)c(O)c(O)c1)c1cc(O)c(O)c(O)c1	inactive
O=C(NCCCCCCCCCCCCNC(=O)c1ccccc1O)c1ccccc1O	inactive
O=C(NCCCCCCNC(=O)c1ccc(O)c(O)c1O)c1ccc(O)c(O)c1O	inactive

test system: Respiratory syncytial virus; assay: Antiviral activity against RSV; type: functional, organism-based; conditions: not given

SMILES	Activity
O=C(NCCCCCCCCNC(=O)c1ccc(O)c(O)c1O)c1ccc(O)c(O)c1O	inactive
O=C(NCCCCNC(=O)c1cc(O)c(O)c(O)c1)c1cc(O)c(O)c(O)c1	inactive
O=C(NCCCCCCCCCCCCNC(=O)c1ccccc1O)c1ccccc1O	inactive
O=C(NCCCCCCNC(=O)c1ccc(O)c(O)c1O)c1ccc(O)c(O)c1O	inactive

test system: Reovirus sp.; assay: Antiviral activity against reovirus; type: functional, organism-based; conditions: not given

SMILES	Activity
O=C(NCCCCCCCCNC(=O)c1ccc(O)c(O)c1O)c1ccc(O)c(O)c1O	inactive
O=C(NCCCCNC(=O)c1cc(O)c(O)c(O)c1)c1cc(O)c(O)c(O)c1	inactive
O=C(NCCCCCCCCCCCCNC(=O)c1ccccc1O)c1ccccc1O	inactive
O=C(NCCCCCCNC(=O)c1ccc(O)c(O)c1O)c1ccc(O)c(O)c1O	inactive

test system: Sindbis virus; assay: Antiviral activity against sindbis virus; type: functional, organism-based; conditions: not given

SMILES	Activity
O=C(NCCCCCCCCNC(=O)c1ccc(O)c(O)c1O)c1ccc(O)c(O)c1O	inactive
O=C(NCCCCNC(=O)c1cc(O)c(O)c(O)c1)c1cc(O)c(O)c(O)c1	inactive
O=C(NCCCCCCCCCCCCNC(=O)c1ccccc1O)c1ccccc1O	inactive
O=C(NCCCCCCNC(=O)c1ccc(O)c(O)c1O)c1ccc(O)c(O)c1O	inactive

test system: Feline coronavirus; assay: Antiviral activity against feline coronavirus; type: functional, organism-based; conditions: not given

SMILES	Activity
O=C(NCCCCCCCCNC(=O)c1ccc(O)c(O)c1O)c1ccc(O)c(O)c1O	inactive
O=C(NCCCCNC(=O)c1cc(O)c(O)c(O)c1)c1cc(O)c(O)c(O)c1	inactive
O=C(NCCCCCCCCCCCCNC(=O)c1ccccc1O)c1ccccc1O	inactive
O=C(NCCCCCCNC(=O)c1ccc(O)c(O)c1O)c1ccc(O)c(O)c1O	inactive

test system: Human respirovirus 3; assay: Antiviral activity against human parainfluenza virus 3; type: functional, organism-based; conditions: not given

SMILES	Activity
O=C(NCCCCCCCCNC(=O)c1ccc(O)c(O)c1O)c1ccc(O)c(O)c1O	inactive
O=C(NCCCCNC(=O)c1cc(O)c(O)c(O)c1)c1cc(O)c(O)c(O)c1	inactive
O=C(NCCCCCCCCCCCCNC(=O)c1ccccc1O)c1ccccc1O	inactive
O=C(NCCCCCCNC(=O)c1ccc(O)c(O)c1O)c1ccc(O)c(O)c1O	inactive
